Laboratory results as given in patent US8106197B2, “Aminoheteroaryl compounds as protein kinase inhibitors” (Pfizer Inc., priority 2003, dated 2012).
Like-named read-outs stand apart in the source and are kept apart here.

Target: T1, HGFR (Homo sapiens, UniProt P08581)
T1 construct: purchased Upstate 14-526
Test: HGFR continuous-coupled spectrophotometric assay
Format: biochemical
Settings: for inhibition at 1 µM: Table 6, percent c-MET inhibition at 1 μM, read-out: % inhibition; for I(%): Table 3, Ki(μM) or I(%), test concentration not given

[1] = Table 5, percent c-MET inhibition at 50 nM

T1 sequence (P08581 974-1390 limits assumed): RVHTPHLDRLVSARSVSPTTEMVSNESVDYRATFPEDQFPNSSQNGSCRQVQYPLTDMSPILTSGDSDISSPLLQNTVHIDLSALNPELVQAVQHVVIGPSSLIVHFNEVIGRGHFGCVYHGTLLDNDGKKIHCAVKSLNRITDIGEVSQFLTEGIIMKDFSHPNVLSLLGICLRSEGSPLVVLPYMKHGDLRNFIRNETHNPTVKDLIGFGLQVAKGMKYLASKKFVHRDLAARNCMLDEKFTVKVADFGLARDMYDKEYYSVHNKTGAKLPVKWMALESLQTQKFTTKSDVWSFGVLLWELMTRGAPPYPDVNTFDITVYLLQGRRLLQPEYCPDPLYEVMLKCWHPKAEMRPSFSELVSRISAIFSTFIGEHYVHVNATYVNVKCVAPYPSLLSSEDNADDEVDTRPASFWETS

Row | inhibition at 1 µM | % inhibition | SMILES | also measured
1 | 33% |  | Cc1cnc(CNC(=O)c2cnc(N)c(OCc3c(Cl)cccc3Cl)c2)cn1 | 
2 |  | % inhibition = 22 | Cc1cc(-c2onc(C)c2COc2cc(-c3ccc(C(=O)N4CCC(N5CCCC5)CC4)cc3)cnc2N)no1 | 
3 |  | % inhibition = 14 | Nc1ncc(-c2ccc(C(=O)N3CCC(N4CCCC4)CC3)cc2)cc1OCc1nnn[nH]1 | 
4 |  | % inhibition = 11 | Nc1ncc(-c2ccc(C(=O)N3CCC(N4CCCC4)CC3)cc2)cc1OCc1cn2ccccc2n1 | 
5 | 21% |  | Nc1ncc(C(=O)NC2COC3(CCN(c4ncccn4)CC3)C2)cc1OCc1c(Cl)cccc1Cl (stereo not drawn) | 
6 | 32% |  | Nc1ncc(C(=O)NCc2ccc(F)cc2)cc1OCc1c(Cl)cccc1Cl | 
7 |  | % inhibition = 17 | COc1cc(COc2cc(-c3ccc(C(=O)N4CCC(N5CCCC5)CC4)cc3)cnc2N)cc(OC)c1 | 
8 |  |  | CC(=O)N(C)C1CCN(C(=O)c2ccc(-c3cnc(N)c(OC(C)c4c(Cl)ccc(F)c4Cl)c3)cc2)C1 (stereo not drawn) | inhibition at 0.05 µM [1]: 70%
9 |  | % inhibition = 36 | CC(C)(C)c1ccc(-c2noc(COc3cc(-c4ccc(C(=O)N5CCC(N6CCCC6)CC5)cc4)cnc3N)n2)cc1 | 
10 |  | % inhibition = 18 | CC(C)NC(=O)c1ccc(-c2noc(COc3cc(-c4ccc(C(=O)N5CCC(N6CCCC6)CC5)cc4)cnc3N)n2)cc1 | 
11 |  | % inhibition = 10 | COc1ccc(-c2nc(COc3cc(-c4ccc(C(=O)N5CCC(N6CCCC6)CC5)cc4)cnc3N)no2)cc1 | 
12 | 47% |  | Nc1ncc(C(=O)N2CCCC(C(=O)N3CCCC3)C2)cc1OCc1c(Cl)cccc1Cl (stereo not drawn) | 
13 |  | % inhibition = 17 | Nc1ncc(-c2ccc(C(=O)N3CCC(N4CCCC4)CC3)cc2)cc1OCc1cccnc1 | 
14 | 31% |  | Nc1ncc(C(=O)N2CCn3c(CO)nnc3C2)cc1OCc1c(Cl)cccc1Cl | 
15 |  |  | Cc1ccccc1COc1cc(-c2ccc(C(=O)N3CC(C)NC(C)C3)cc2)cnc1N (stereo not drawn) [Example I-624, {4-[6-Amino-5-(2-methyl-benzyloxy)-pyridin-3-yl]-phenyl}-(3,5-dimethyl-piperazin-1-yl)-methanone] | I(%): 0%
16 |  | % inhibition = 20 | CN(C)CCNC(=O)c1cccc(COc2cc(-c3ccc(C(=O)N4CCC(N5CCCC5)CC4)cc3)cnc2N)c1 | 
17 |  |  | CC(Oc1cc(-c2ccccc2CO)cnc1N)c1c(Cl)ccc(F)c1Cl (stereo not drawn) [Example I-564, (2-{6-Amino-5-[1-(2,6-dichloro-3 fluoro-phenyl)-ethoxy]pyridin-3-yl}-phenyl)-methanol] | I(%): 21%
18 |  | % inhibition = 17 | Nc1ncc(-c2ccc(C(=O)N3CCC(N4CCCC4)CC3)cc2)cc1OCc1ccc(-c2ccnc(Br)n2)cc1 | 
19 |  | % inhibition = 15 | COc1cccc(COc2cc(-c3ccc(C(=O)N4CCC(N5CCCC5)CC4)cc3)cnc2N)c1 | 
20 | 25% |  | Nc1ncc(C(=O)N2CCCC(Cc3ncccn3)C2)cc1OCc1c(Cl)cccc1Cl (stereo not drawn) | 
21 |  | % inhibition = 9 | CN(C)CCNC(=O)c1ccc(COc2cc(-c3ccc(C(=O)N4CCC(N5CCCC5)CC4)cc3)cnc2N)cc1 | 
22 |  | % inhibition = 19 | Nc1ncc(-c2ccc(C(=O)N3CCC(N4CCCC4)CC3)cc2)cc1OCc1nnnn1Cc1ccccc1 | 
23 | 38% |  | Nc1ncc(C(=O)NCc2cn3cc(Cl)ccc3n2)cc1OCc1c(Cl)cccc1Cl | 
24 | 71% |  | CCN(CC)CC1(O)CCN(C(=O)c2cnc(N)c(OCc3c(Cl)cccc3Cl)c2)CC1 | 
25 |  | % inhibition = 14 | CC(Oc1nc(-c2ccc(C(=O)N3CCC[C@H]3CN3CCCC3)cc2)cnc1N)c1c(Cl)cccc1Cl (stereo partly drawn) | 
26 | 17% |  | Nc1ncc(C(=O)N2CCC3(CC2)CC(N2CCNC(=O)C2)CO3)cc1OCc1c(Cl)cccc1Cl (stereo not drawn) | 

Row | inhibition at 1 µM | % inhibition | SMILES | also measured
27 | 28% |  | Nc1ncc(C(=O)N2CCC3(CC2)CC(N2CCC(O)CC2)CO3)cc1OCc1c(Cl)cccc1Cl (stereo not drawn) | 
28 |  | % inhibition = 26 | Cc1ccc(COc2cc(-c3ccc(C(=O)N4CCC(N5CCCC5)CC4)cc3)cnc2N)cc1Cl | 
29 |  | % inhibition = 15 | Nc1ncc(-c2ccc(C(=O)N3CCC(N4CCCC4)CC3)cc2)cc1OCc1ccc(Cl)cc1 | 
30 |  | % inhibition = 22 | Nc1ncc(-c2ccc(C(=O)N3CCC(N4CCCC4)CC3)cc2)cc1OCc1ccccc1-c1ccccc1 | 
31 |  | % inhibition = 5 | Cn1nc(C2CC2)nc1COc1cc(-c2ccc(C(=O)N3CCC(N4CCCC4)CC3)cc2)cnc1N | 
32 | 16% |  | Nc1ncc(C(=O)NCCC2CCC(=O)N2CCc2ccc(O)cc2)cc1OCc1c(Cl)cccc1Cl (stereo not drawn) | 
33 |  | % inhibition = 22 | Nc1ncc(-c2ccc(C(=O)N3CCC(N4CCCC4)CC3)cc2)cc1OCc1cccc2cccnc12 | 
34 |  | % inhibition = 10 | Nc1ncc(-c2ccc(C(=O)N3CCC(N4CCCC4)CC3)cc2)cc1OCc1cccc(C(=O)NCc2ccncc2)c1 | 
35 |  |  | CC(Oc1cc(-c2ccc(C(=O)N[C@H](C)C3CCCCC3)cc2)cnc1N)c1c(Cl)ccc(F)c1Cl (stereo partly drawn) [drawing 1071] | % inhibition (Table 5, percent c-MET inhibition at 50 nM, 0.05 µM): % inhibition = 54
36 | 35% |  | Nc1ncc(C(=O)N2CCC(COc3cccc4cccnc34)C2)cc1OCc1c(Cl)cccc1Cl (stereo not drawn) | 
37 |  | % inhibition = 28 | Cc1cccc(COc2cc(-c3ccc(C(=O)N4CCC(N5CCCC5)CC4)cc3)cnc2N)c1F | 
38 | 25% |  | CN(CCC1CCC(=O)N1CC(F)(F)F)C(=O)c1cnc(N)c(OCc2c(Cl)cccc2Cl)c1 (stereo not drawn) | 
39 | 33% |  | CN(C)C1CCN(C(=O)c2cnc(N)c(OCc3c(Cl)cccc3Cl)c2)C1 (stereo not drawn) | 
40 | 28% |  | CN(CCC(O)c1ccccc1)C(=O)c1cnc(N)c(OCc2c(Cl)cccc2Cl)c1 (stereo not drawn) | 
41 | 35% |  | Cn1ccnc1SCC1(O)CCCN(C(=O)c2cnc(N)c(CCc3c(Cl)cccc3Cl)c2)CC1 (stereo not drawn) | 
42 |  | % inhibition = 8 | Nc1ncc(-c2ccc(C(=O)N3CCC(N4CCCC4)CC3)cc2)cc1OCc1nccn1Cc1ccccc1 | 
43 | 24% |  | CN1CCN(CCCNC(=O)c2cnc(N)c(OCc3c(Cl)cccc3Cl)c2)CC1 | 
44 |  | % inhibition = 23 | COc1ccnc(COc2cc(-c3ccc(C(=O)N4CCC(N5CCCC5)CC4)cc3)cnc2N)c1OC | 
45 | 30% |  | Nc1ncc(C(=O)NCCc2ccncc2)cc1OCc1c(Cl)cccc1Cl | 
46 |  |  | CC(Oc1cc(-c2ccc(C(=O)N3CCNC(=O)C3C)cc2)cnc1N)c1c(Cl)ccc(F)c1Cl (stereo not drawn) | inhibition at 0.05 µM [1]: 86%
47 | 34% |  | Nc1ncc(C(=O)NCCCN2CCCC2=O)cc1OCc1c(Cl)cccc1Cl | 
48 | 25% |  | COc1cc(CCNC(=O)c2cnc(N)c(OCc3c(Cl)cccc3Cl)c2)cc(OC)c1O | 
49 | 16% |  | Nc1ncc(C(=O)N2CCCC(F)(F)C2)cc1OCc1c(Cl)cccc1Cl | 
50 | 37% |  | Nc1ncc(C(=O)N2CCC3(CC2)CC(CCc2ccnnc2)CO3)cc1OCc1c(Cl)cccc1Cl (stereo not drawn) | 
51 | 47% |  | CC(C)CNC(=O)c1ccc(Cl)c(CNC(=O)c2cnc(N)c(OCc3c(Cl)cccc3Cl)c2)c1 | 
52 |  | % inhibition = 17 | Nc1ncc(-c2ccc(C(=O)N3CCC(N4CCCC4)CC3)cc2)cc1OCc1nc2ncccc2o1 | 

Row | inhibition at 1 µM | % inhibition | SMILES | also measured
53 |  |  | CC(Oc1cc(-c2ccc(C(=O)N[C@H]3CC[C@H](CO)CC3)cc2)cnc1N)c1c(Cl)ccc(F)c1Cl (stereo partly drawn) | inhibition at 0.05 µM [1]: 68%
54 |  | % inhibition = 12 | Nc1ncc(-c2ccc(C(=O)N3CCC(N4CCCC4)CC3)cc2)cc1OCc1cscn1 | 
55 | 38% |  | CN(C)CC(C)(C)CNC(=O)c1cnc(N)c(OCc2c(Cl)cccc2Cl)c1 | 
56 | 19% |  | Nc1ncc(C(=O)N2CCCC2c2ccncc2)cc1OCc1c(Cl)cccc1Cl (stereo not drawn) | 
57 | 35% |  | Nc1ncc(C(=O)N2CCC(O)CC2)cc1OCc1c(Cl)cccc1Cl | 
58 |  |  | CCOc1ccccc1-c1cnc(N)c(OC(C)c2c(Cl)ccc(F)c2Cl)c1 (stereo not drawn) [Example I-555, 3-[1-(2,6-Dichloro-3-fluoro-phenyl)-ethoxy]-5-(2-ethoxy-phenyl)-pyridin-2-ylamine] | I(%): 22%
59 |  | % inhibition = 9 | CC(=O)Nc1nc(COc2cc(-c3ccc(C(=O)N4CCC(N5CCCC5)CC4)cc3)cnc2N)cs1 | 
60 | 22% |  | COc1ccc(C(CCO)NC(=O)c2cnc(N)c(OCc3c(Cl)cccc3Cl)c2)cc1 (stereo not drawn) | 
61 | 33% |  | Nc1ncc(C(=O)N2CCN(CCOCCO)CC2)cc1OCc1c(Cl)cccc1Cl | 
62 | 33% |  | Nc1ncc(C(=O)N2CCCC(O)C2)cc1OCc1c(Cl)cccc1Cl (stereo not drawn) | 
63 |  | % inhibition = 10 | CC(Oc1cc(-c2ccc(C(=O)N3CCC(N4CCCC4)CC3)cc2)cnc1N)c1ccccc1 (stereo not drawn) | 
64 | 24% |  | Nc1ncc(C(=O)NC[C@H]2CCCC[C@H]2O)cc1OCc1c(Cl)cccc1Cl | 
65 | 36% |  | Nc1ncc(C(=O)NCc2ccccc2Br)cc1OCc1c(Cl)cccc1Cl | 
66 |  | % inhibition = 10 | Cc1nc2scc(COc3cc(-c4ccc(C(=O)N5CCC(N6CCCC6)CC5)cc4)cnc3N)c2c(=O)[nH]1 | 
67 |  | % inhibition = 23 | Nc1ncc(-c2ccc(C(=O)N3CCC(N4CCCC4)CC3)cc2)cc1OCc1cc(-c2ccc(Cl)cc2)no1 | 
68 |  |  | CC(Oc1cc(-c2ccc(C(=O)N3CCCC(C(N)=O)C3)cc2)cnc1N)c1c(Cl)ccc(F)c1Cl (stereo not drawn) | inhibition at 0.05 µM [1]: 84%
69 |  | % inhibition = 20 | Nc1ncc(-c2ccc(C(=O)N3CCC(N4CCCC4)CC3)cc2)cc1OCc1ccc(OC(F)(F)F)cc1 | 
70 | 36% |  | Nc1ncc(C(=O)NCCc2c[nH]c3ccc(Cl)cc23)cc1OCc1c(Cl)cccc1Cl | 
71 |  | % inhibition = 19 | Nc1ncc(-c2ccc(C(=O)N3CCC(N4CCCC4)CC3)cc2)cc1OCc1ccc(Cl)s1 | 
72 | 22% |  | CCS(=O)(=O)N1CCN(C(=O)c2cnc(N)c(OCc3c(Cl)cccc3Cl)c2)CC1 | 
73 |  |  | CC(Oc1cc(-c2ccc(C(=O)N3C[C@@H](C)N[C@@H](C)C3)cc2)cnc1N)c1ccccc1C(F)(F)F (stereo partly drawn) [Example I-616] | I(%): 3%
74 | 26% |  | Nc1ncc(C(=O)NCCc2nc3ccccc3s2)cc1OCc1c(Cl)cccc1Cl | 
75 | 35% |  | Nc1ncc(C(=O)NC2CCSC2=O)cc1OCc1c(Cl)cccc1Cl (stereo not drawn) | 
76 |  |  | CC(Cc1ccc(Cl)cc1)NC(=O)c1ccc(-c2cnc(N)c(OC(C)c3c(Cl)ccc(F)c3Cl)c2)cc1 (stereo not drawn) | inhibition at 0.05 µM [1]: 58%
77 |  | % inhibition = 8 | COc1ccccc1-c1nc(COc2cc(-c3ccc(C(=O)N4CCC(N5CCCC5)CC4)cc3)cnc2N)no1 | 
78 |  | % inhibition = 11 | Nc1ncc(-c2ccc(C(=O)N3CCC(N4CCCC4)CC3)cc2)cc1OCc1nc(-c2ccc(C(=O)N3CCCC3)cc2)no1 | 
